Experiment [1] concerns the target T1, Adenosine receptor A1 (Homo sapiens, UniProt P30542).
T1 sequence (P30542 whole entry): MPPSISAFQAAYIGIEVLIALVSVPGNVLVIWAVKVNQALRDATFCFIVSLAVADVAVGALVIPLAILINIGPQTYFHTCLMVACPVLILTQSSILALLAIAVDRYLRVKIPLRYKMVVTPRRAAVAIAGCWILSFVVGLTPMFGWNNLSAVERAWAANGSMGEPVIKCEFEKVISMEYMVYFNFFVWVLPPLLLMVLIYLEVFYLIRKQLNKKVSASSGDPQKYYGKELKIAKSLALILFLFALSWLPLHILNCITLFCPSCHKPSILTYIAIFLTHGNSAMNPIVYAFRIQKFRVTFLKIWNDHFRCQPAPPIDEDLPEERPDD

Experiment [2] addresses T2, Androgen receptor (Rattus norvegicus, UniProt P15207).
T2 sequence (P15207 whole entry): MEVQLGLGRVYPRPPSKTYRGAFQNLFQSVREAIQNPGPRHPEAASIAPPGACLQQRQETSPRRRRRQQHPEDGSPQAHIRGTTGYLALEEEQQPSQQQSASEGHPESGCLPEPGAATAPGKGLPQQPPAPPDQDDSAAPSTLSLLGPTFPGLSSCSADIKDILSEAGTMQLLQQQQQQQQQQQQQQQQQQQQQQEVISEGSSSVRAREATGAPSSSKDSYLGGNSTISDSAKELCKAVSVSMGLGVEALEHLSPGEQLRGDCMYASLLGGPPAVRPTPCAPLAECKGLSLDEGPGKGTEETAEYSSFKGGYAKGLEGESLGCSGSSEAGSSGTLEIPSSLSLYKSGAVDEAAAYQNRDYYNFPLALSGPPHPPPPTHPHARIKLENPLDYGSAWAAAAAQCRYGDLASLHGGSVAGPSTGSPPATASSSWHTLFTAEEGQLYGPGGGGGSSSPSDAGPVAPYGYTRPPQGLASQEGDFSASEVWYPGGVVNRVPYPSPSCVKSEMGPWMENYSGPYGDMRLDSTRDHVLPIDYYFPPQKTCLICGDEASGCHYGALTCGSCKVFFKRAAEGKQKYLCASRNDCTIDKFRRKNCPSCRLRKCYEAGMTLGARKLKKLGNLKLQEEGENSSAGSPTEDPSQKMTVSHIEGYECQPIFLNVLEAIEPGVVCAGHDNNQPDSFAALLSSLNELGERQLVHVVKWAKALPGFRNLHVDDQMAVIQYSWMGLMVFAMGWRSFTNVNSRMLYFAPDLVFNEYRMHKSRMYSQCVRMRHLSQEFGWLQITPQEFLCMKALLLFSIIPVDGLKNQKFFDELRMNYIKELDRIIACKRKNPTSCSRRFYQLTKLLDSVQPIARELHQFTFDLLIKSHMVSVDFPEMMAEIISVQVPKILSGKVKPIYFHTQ
The class given is functional.

Experiment [3] addresses T3, D(4) dopamine receptor (Homo sapiens, UniProt P21917).
T3 sequence (P21917 whole entry): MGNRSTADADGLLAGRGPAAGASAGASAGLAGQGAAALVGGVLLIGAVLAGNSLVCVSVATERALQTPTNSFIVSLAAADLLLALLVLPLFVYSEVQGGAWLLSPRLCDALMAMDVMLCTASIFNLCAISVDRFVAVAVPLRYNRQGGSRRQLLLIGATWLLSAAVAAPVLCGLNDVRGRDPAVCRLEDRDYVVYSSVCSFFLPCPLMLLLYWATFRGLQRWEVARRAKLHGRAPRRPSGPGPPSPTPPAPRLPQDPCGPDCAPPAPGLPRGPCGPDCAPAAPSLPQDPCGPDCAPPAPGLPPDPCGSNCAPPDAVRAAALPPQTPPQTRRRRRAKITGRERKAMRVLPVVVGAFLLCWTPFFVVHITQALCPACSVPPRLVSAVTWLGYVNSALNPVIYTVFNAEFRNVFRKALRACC

In experiment [4] the target is Estrogen receptor beta (Homo sapiens, UniProt Q92731).
Sequence of Estrogen receptor beta (Q92731 whole entry): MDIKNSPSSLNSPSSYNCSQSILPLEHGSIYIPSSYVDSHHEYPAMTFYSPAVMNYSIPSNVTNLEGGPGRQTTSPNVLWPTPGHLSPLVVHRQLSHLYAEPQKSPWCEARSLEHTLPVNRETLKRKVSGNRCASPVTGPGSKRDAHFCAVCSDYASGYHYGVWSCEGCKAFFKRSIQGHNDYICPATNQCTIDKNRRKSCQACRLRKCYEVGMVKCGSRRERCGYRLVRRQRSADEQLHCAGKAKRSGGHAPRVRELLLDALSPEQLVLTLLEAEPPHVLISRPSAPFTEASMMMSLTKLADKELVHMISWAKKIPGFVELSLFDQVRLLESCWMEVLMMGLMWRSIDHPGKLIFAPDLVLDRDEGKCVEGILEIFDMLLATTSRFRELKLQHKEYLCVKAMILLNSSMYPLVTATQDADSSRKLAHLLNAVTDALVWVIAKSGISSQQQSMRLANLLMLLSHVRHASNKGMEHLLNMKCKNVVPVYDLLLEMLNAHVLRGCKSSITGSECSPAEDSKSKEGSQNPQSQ
Experiment [5] deals with Substance-P receptor (Homo sapiens, UniProt P25103).
Sequence of Substance-P receptor (P25103 whole entry): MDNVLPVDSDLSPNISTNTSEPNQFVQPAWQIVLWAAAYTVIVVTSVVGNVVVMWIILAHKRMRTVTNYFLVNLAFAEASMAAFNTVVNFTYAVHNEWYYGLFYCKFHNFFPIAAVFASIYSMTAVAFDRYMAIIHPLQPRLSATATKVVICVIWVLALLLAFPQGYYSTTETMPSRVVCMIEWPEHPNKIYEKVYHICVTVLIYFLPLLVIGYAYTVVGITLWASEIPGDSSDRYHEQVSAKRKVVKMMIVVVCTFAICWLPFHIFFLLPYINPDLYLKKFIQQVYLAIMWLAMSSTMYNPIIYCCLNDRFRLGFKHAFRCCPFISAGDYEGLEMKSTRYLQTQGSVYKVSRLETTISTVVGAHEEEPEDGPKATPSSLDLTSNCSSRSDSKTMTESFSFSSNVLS
Experiment [6] deals with T4, Alpha-2A adrenergic receptor (Homo sapiens, UniProt P08913).
T4 sequence (P08913 whole entry): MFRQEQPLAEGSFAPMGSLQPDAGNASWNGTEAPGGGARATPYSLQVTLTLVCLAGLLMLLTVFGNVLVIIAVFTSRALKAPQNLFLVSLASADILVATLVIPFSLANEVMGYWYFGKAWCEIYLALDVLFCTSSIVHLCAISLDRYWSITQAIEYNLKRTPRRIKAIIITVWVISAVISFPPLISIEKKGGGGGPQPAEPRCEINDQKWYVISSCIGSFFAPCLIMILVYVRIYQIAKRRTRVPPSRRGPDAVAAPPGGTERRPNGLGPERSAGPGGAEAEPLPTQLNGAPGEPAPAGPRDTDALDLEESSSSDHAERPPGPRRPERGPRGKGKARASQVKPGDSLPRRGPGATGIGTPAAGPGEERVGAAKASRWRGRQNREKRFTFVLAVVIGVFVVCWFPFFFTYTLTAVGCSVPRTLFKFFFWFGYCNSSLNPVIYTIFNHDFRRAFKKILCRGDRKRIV

The target in experiment [7] is D(1A) dopamine receptor (Homo sapiens, UniProt P21728). In kind it is functional, cell-based.
Sequence of D(1A) dopamine receptor (P21728 whole entry): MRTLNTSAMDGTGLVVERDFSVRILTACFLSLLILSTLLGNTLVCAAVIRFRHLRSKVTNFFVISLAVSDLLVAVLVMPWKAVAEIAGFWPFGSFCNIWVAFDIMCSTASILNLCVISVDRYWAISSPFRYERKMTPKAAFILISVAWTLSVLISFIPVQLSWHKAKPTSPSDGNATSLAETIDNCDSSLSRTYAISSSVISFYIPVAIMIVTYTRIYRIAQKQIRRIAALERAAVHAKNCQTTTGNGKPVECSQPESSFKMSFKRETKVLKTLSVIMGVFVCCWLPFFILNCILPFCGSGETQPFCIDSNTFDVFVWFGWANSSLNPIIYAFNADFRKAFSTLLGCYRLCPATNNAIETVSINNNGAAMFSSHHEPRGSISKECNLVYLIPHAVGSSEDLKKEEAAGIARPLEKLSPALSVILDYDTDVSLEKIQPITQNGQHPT
The target in experiment [8] is Acetylcholinesterase (Homo sapiens, UniProt P22303). The class given is functional.
Sequence of Acetylcholinesterase (P22303 whole entry): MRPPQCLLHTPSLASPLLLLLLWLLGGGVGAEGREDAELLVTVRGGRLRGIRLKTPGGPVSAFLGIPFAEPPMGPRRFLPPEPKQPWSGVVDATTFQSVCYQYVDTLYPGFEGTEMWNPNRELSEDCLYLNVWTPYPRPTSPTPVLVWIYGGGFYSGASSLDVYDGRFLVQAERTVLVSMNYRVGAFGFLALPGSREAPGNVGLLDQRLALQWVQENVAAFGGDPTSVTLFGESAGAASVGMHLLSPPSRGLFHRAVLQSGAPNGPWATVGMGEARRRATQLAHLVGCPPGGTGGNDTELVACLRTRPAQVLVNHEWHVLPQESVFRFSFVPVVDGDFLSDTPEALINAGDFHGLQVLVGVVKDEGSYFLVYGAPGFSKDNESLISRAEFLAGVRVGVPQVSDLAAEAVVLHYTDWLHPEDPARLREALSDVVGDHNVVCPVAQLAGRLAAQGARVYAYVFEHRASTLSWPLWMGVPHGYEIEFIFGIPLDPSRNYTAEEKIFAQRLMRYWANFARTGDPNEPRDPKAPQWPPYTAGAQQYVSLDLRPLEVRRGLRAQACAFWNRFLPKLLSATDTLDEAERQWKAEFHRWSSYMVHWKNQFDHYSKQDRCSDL

AC50 data for 21 compounds are collected here from ChEMBL document CHEMBL5291721, “A preclinical secondary pharmacology resource illuminates target-adverse drug reaction associations of marketed drugs” (Nat Commun, 2023).

Structures are written as SMILES.
Further: assay procedure not described here.

For the compound `O=C(Nc1cccc2c(=O)cc(-c3nnn[nH]3)oc12)c1ccc(OCCCCc2ccccc2)cc1`, the AC50 in experiment [1] amounted to 21.7 µM.
Take `CC1(C)S[C@@H]2[C@H](NC(=O)[C@H](N)c3ccc(O)cc3)C(=O)N2[C@H]1C(=O)O` [AMOXICILLIN]: the half-maximal activity concentration (AC50) in experiment [2] was above 30 µM; in experiment [3] it was above 10 µM; in experiment [4], above 30 µM; in experiment [5], above 10 µM; in experiment [6], above 10 µM.
Take `CNCC[C@@H](Oc1ccccc1C)c1ccccc1` [ATOMOXETINE]: the half-maximal activity concentration (AC50) in experiment [2] was above 30 µM.
In turn, `CCc1oc2ccccc2c1C(=O)c1cc(Br)c(O)c(Br)c1` [BENZBROMARONE] came in with a concentration at half-maximal activity (AC50) in experiment [6] above 10 µM.
Take `C=C(C)[C@@H]1CCC(C)=C[C@H]1c1c(O)cc(CCCCC)cc1O` [CANNABIDIOL]: the values for the AC50 in experiment [7] and in experiment [8] were 10 µM and 17 µM, respectively.
Regarding `[H]/N=C(\N/C(=N/[H])NCCCCCCNC(=N)NC(=N)Nc1ccc(Cl)cc1)Nc1ccc(Cl)cc1` [CHLORHEXIDINE], the AC50 in experiment [6] is above 10 µM.
As to `Clc1cccc(Cl)c1N=C1NCCN1` [CLONIDINE], the half-maximal activity concentration (AC50) in experiment [5] is above 10 µM.
Consider `COC(=O)[C@H](c1ccccc1Cl)N1CCc2sccc2C1` [CLOPIDOGREL], for which the AC50 was above 10 µM in experiment [3], above 30 µM in experiment [4], above 10 µM in experiment [5] and above 10 µM in experiment [6].
In experiment [4], `CN1C[C@H](C(=O)N[C@]2(C)O[C@@]3(O)[C@@H]4CCCN4C(=O)[C@H](Cc4ccccc4)N3C2=O)C[C@@H]2c3cccc4[nH]cc(c34)C[C@H]21` [DIHYDROERGOTAMINE] registered an AC50 above 30 µM.
With `CCC(=O)O[C@@H](O[P@](=O)(CCCCc1ccccc1)CC(=O)N1C[C@H](C2CCCCC2)C[C@H]1C(=O)O)C(C)C` [FOSINOPRIL], the half-maximal activity concentration (AC50) in experiment [1] is above 30 µM.
On to `CC(C)(N)C(=O)N[C@H](Cc1c[nH]c2ccccc12)C(=O)N[C@H](Cc1c[nH]c2ccccc12)NC=O` [MACIMORELIN], for which the half-maximal activity concentration (AC50) in experiment [1] was above 30 µM.
Turning to `Cc1cnc(NC(=O)C2=C(O)c3ccccc3S(=O)(=O)N2C)s1` [MELOXICAM], the AC50 in experiment [3] was above 10 µM; in experiment [4], above 30 µM; in experiment [5] it was above 10 µM; in experiment [6], above 10 µM.
With `CN(C)c1cc(CNCC(C)(C)C)c(O)c2c1C[C@H]1C[C@H]3[C@H](N(C)C)C(O)=C(C(N)=O)C(=O)[C@@]3(O)C(O)=C1C2=O` [OMADACYCLINE], the AC50 in experiment [1] and in experiment [2] was above 30 µM each time.
Regarding `COc1ccnc(C[S+]([O-])c2nc3ccc(OC(F)F)cc3[nH]2)c1OC` (stereo unspecified) [PANTOPRAZOLE], the AC50 was above 10 µM in experiment [3], above 30 µM in experiment [4], above 10 µM in experiment [5] and above 10 µM in experiment [6].
In the case of `COc1ccc(Cc2nccc3cc(OC)c(OC)cc23)cc1OC` [PAPAVERINE], the concentration at half-maximal activity (AC50) in experiment [2] was above 30 µM.
Regarding `CNC[C@H](O)c1cccc(O)c1` [PHENYLEPHRINE], the results for the AC50 in experiment [3], in experiment [4] and in experiment [5] were above 10 µM, above 30 µM and above 10 µM, respectively.
Regarding `CNC(=O)c1cc(Oc2ccc(NC(=O)Nc3ccc(Cl)c(C(F)(F)F)c3)c(F)c2)ccn1` [REGORAFENIB], the AC50 in experiment [1] is above 30 µM.
Consider `CC[C@H]1OC(=O)[C@H](C)[C@@H](O[C@H]2C[C@@](C)(OC)[C@@H](O)[C@H](C)O2)[C@H](C)[C@@H](O[C@@H]2O[C@H](C)C[C@H](N(C)C)[C@H]2O)[C@](C)(O)C[C@@H](C)/C(=N\OCOCCOC)[C@H](C)[C@@H](O)[C@]1(C)O` [ROXITHROMYCIN], for which the AC50 in experiment [7] and in experiment [8] was above 30 µM each time.
`CCCCNc1ccc(C(=O)OCCN(C)C)cc1` [TETRACAINE]: the concentration at half-maximal activity (AC50) was above 30 µM in experiment [1], 4.14 µM in experiment [3], above 10 µM in experiment [5] and above 10 µM in experiment [6].
Consider `CN1CCN(CCCN2c3ccccc3Sc3ccc(S(=O)(=O)N(C)C)cc32)CC1` [THIOPROPERAZINE], for which the concentration at half-maximal activity (AC50) in experiment [1] was above 30 µM.
Consider `CC1(C)O[C@@H]2[C@@H](CO[C@@]3(COS(N)(=O)=O)OC(C)(C)O[C@@H]23)O1` [TOPIRAMATE], for which the AC50 was above 30 µM in experiment [1]; above 10 µM in experiment [3]; above 30 µM in experiment [4]; above 10 µM in experiment [5]; above 10 µM in experiment [6].

One may read the AC50 as the concentration at which the activity in the assay is half-maximal.
